Data published in patent US20130210911A1, “METHOD AND COMPOSITION FOR TREATING A DISEASE OR CONDITION RELATED TO OREXIN RECEPTOR 1, OREXIN RECEPTOR 2, SOMATOSTATIN RECEPTOR 2 OR DOPAMINE D2L RECEPTOR” (CENTER LABORATORIES, INC., priority 2009, published 2013).
Counter-ions that a name gives are not always drawn. Like-named read-outs stand apart in the source and are kept apart here.

Tests used:
Orexin receptor 1 = molecular target: T1, Orexin receptor 1 (Homo sapiens, UniProt O43613); assay: biochemical; conditions: for nH (Hill coefficient): human orexin receptor 1 binding
T1 sequence (O43613 1-425): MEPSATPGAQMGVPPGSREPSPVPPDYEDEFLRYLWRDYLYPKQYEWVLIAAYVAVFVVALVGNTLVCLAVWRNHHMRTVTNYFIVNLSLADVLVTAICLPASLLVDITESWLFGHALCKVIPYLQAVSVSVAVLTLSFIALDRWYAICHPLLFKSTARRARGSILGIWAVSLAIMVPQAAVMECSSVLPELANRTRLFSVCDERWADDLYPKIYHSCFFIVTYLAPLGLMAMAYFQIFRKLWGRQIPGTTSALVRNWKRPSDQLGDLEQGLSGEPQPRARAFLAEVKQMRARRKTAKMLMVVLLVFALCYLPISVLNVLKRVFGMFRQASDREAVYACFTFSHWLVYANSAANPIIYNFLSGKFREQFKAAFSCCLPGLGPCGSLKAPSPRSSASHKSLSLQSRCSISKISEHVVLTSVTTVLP
Description: (§1) Binding activity was evaluated to assess the selectivity of verapamil on various receptors. The binding activity of the reported receptors was analyzed using the following known methods. Primary screening were performed in duplicate and presented in semi-quantitative data (e.g., IC50, Ki and nH). Where presented, IC50 values were determined by a non-linear, least squares regression analysis using MathIQ™ (ID Bussiness Solutions Ltd., UK). […] Where presented, the Hill coefficient (nH), defining the slope of the competitive binding curve, was calculated using MathIQ™.
(§2) Orexin receptor 1 or 2 binding affinity was examined using the methods disclosed by Kukkonen et al., (2002) Am J Physiol Cell Physiol. 283:C1567-C1591; and Langmead et al., (2004) Br J Pharmacol. 141(2):340-346. […] Pharmacol. 58:254-264; and Spedding. (1984) M. Eur J Pharmacol. 83:211. Somaostatin receptor 2 binding activity was estimated by the method described by Feniuk et al., (1993) Br J Pharmacol. 110:1156-1164. Adenosine receptor binding activity was examined using the method described by Varani et al., (1996) Br J Pharmacol. 117:1693-1701. Bradykinin receptor binding activity was examined using the methods described by Horlick et al., (1999) Immunopharmacology 43(2-3):169-177; and Phagoo et al., (2001) J Pharmacol Exp Ther 298(1):77-85. Calcium channel (N-type) binding activity was examined using the method disclosed by Moresco et al., (1990) Neurobiol of Aging. 11(4):433-436. Cannabinoid receptor binding activity was examined using the method disclosed by Reggio et al., (1998) J Med Chem 41(26):5177-5187. […] Estrogen receptors (including ERα and ERβ) were examined using the method disclosed by Obourn et al., (1993) Biochem 32:6229-6236. GABA receptor (including GABAA and GABAB1A,) binding activity was examined using methods disclosed by Lewin et al., (1989) Mol Pharmacol 35:189-194; Maksay G. (1993) Eur J Pharmacol 246:255-260; Enna and Snyder, (1977) Mol Pharmacol. 13:442-453; Martini et al., (1983) J Neurochem. […] Leptin receptor binding activity was examined using the method disclosed by Fong et al., (1998) Mol Pharmacol 53:234-240. […] 75(6):2590-2601. Tachykinin receptor binding activity was examined using the method disclosed by Patacchini and Maggi, (1995) Arch Int Pharmacodyn. 329:161-184. Vanilloid receptor binding activity was examined using the methods disclosed by Szallasi et al., (1993) J Pharmacol Exp Ther. 267(2):728-733. Melatonin receptor binding activity was examined using the methods disclosed by Beresford et al., (1998) J Pharmacol Exp Ther 285(3):1239-1245; and Paul et al., (1999) J Pharmacol Exp Ther 290(1):334-340. Serotonin receptor binding activity was examined using the methods disclosed by Bonhaus et al., (1995) Br J Pharmacol 115:622-628; and Saucier and Albert (1997) J. Neuorchem 68:1998-2011.

Orexin receptor 2 = molecular target: T2, Orexin receptor 2 (Homo sapiens, UniProt O43614); assay: biochemical; conditions: for nH (Hill coefficient): human orexin receptor 2 binding
T2 sequence (O43614 1-444): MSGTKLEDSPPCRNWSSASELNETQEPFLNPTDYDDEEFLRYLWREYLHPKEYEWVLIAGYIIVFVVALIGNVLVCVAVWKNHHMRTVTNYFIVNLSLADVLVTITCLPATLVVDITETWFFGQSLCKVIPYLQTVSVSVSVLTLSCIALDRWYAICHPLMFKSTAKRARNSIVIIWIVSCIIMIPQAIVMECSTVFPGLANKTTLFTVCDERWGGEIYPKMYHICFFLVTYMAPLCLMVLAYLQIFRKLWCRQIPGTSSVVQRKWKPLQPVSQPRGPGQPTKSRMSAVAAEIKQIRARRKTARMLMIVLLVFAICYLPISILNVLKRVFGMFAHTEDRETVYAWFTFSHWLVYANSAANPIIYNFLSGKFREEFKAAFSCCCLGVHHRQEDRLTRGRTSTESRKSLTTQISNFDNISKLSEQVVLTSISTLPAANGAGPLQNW
Description: as §1, §2

Sodium Channel, Site 2 = assay: Sodium channel, site 2 binding assay; design: species or system rat
Somatostatin receptor 2 = Somatostatin receptor 2 (Cavia porcellus, UniProt A0A286XKC5); assay: Somatostatin tissue assay; conditions: guinea pig tissue
Chain of Somatostatin receptor 2 (A0A286XKC5 1-368): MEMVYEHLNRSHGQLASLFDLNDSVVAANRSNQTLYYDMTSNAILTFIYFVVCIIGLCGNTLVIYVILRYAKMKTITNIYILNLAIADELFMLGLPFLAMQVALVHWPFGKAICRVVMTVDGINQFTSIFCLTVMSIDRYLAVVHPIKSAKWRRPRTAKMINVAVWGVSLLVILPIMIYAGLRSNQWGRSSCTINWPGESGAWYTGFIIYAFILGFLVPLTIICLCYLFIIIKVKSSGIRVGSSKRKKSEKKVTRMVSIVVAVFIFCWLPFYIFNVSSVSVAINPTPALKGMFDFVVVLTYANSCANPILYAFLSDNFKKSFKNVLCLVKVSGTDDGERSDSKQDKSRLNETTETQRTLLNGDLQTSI
Excerpt: (§3) Orexin receptor 1 or 2 binding affinity was examined using the methods disclosed by Kukkonen et al., (2002) Am J Physiol Cell Physiol. 283:C1567-C1591; and Langmead et al., (2004) Br J Pharmacol. 141(2):340-346. […] Pharmacol. 58:254-264; and Spedding. (1984) M. Eur J Pharmacol. 83:211. Somaostatin receptor 2 binding activity was estimated by the method described by Feniuk et al., (1993) Br J Pharmacol. 110:1156-1164. Adenosine receptor binding activity was examined using the method described by Varani et al., (1996) Br J Pharmacol. 117:1693-1701. Bradykinin receptor binding activity was examined using the methods described by Horlick et al., (1999) Immunopharmacology 43(2-3):169-177; and Phagoo et al., (2001) J Pharmacol Exp Ther 298(1):77-85. Calcium channel (N-type) binding activity was examined using the method disclosed by Moresco et al., (1990) Neurobiol of Aging. 11(4):433-436. Cannabinoid receptor binding activity was examined using the method disclosed by Reggio et al., (1998) J Med Chem 41(26):5177-5187. […] Estrogen receptors (including ERα and ERβ) were examined using the method disclosed by Obourn et al., (1993) Biochem 32:6229-6236. […]

Dopamine D2L receptor = Dopamine D2L receptor (Homo sapiens, UniProt P14416)
Chain of Dopamine D2L receptor (P14416 whole entry): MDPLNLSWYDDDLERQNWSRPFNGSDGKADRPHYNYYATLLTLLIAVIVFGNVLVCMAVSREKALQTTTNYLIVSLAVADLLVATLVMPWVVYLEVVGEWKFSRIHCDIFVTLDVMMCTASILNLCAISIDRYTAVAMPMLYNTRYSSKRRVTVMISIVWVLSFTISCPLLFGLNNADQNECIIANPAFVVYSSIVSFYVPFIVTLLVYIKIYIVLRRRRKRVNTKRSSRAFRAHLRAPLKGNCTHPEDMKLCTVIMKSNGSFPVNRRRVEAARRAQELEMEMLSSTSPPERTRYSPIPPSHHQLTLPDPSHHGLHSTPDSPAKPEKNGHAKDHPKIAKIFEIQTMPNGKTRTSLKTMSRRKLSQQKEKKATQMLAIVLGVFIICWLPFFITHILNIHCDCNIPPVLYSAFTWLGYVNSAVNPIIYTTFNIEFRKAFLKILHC
Excerpt: as §3

N-type calcium channel = N-type calcium channel (Rattus norvegicus, UniProt Q02294); assay: Calcium channel (N-type) binding activity; conditions: data not shown
Chain of N-type calcium channel (P54287 whole entry): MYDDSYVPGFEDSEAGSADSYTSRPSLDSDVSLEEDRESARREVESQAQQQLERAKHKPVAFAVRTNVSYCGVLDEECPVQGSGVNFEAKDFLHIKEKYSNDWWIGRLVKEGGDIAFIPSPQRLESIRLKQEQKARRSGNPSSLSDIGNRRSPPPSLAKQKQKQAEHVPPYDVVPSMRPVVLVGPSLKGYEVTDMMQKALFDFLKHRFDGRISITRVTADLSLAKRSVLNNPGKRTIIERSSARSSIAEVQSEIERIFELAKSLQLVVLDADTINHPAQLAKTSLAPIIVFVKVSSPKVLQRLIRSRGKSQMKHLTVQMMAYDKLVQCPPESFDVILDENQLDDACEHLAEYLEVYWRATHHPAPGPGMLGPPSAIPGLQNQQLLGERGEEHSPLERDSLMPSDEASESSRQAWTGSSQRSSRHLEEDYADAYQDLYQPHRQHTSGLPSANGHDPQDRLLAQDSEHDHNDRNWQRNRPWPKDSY
Chain of N-type calcium channel (P54290 945-1091, further chain): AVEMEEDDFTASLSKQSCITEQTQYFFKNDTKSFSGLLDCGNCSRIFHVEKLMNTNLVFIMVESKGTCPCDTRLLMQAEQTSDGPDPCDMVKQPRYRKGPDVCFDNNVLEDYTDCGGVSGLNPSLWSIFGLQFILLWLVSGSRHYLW
Chain of N-type calcium channel (Q02294 whole entry): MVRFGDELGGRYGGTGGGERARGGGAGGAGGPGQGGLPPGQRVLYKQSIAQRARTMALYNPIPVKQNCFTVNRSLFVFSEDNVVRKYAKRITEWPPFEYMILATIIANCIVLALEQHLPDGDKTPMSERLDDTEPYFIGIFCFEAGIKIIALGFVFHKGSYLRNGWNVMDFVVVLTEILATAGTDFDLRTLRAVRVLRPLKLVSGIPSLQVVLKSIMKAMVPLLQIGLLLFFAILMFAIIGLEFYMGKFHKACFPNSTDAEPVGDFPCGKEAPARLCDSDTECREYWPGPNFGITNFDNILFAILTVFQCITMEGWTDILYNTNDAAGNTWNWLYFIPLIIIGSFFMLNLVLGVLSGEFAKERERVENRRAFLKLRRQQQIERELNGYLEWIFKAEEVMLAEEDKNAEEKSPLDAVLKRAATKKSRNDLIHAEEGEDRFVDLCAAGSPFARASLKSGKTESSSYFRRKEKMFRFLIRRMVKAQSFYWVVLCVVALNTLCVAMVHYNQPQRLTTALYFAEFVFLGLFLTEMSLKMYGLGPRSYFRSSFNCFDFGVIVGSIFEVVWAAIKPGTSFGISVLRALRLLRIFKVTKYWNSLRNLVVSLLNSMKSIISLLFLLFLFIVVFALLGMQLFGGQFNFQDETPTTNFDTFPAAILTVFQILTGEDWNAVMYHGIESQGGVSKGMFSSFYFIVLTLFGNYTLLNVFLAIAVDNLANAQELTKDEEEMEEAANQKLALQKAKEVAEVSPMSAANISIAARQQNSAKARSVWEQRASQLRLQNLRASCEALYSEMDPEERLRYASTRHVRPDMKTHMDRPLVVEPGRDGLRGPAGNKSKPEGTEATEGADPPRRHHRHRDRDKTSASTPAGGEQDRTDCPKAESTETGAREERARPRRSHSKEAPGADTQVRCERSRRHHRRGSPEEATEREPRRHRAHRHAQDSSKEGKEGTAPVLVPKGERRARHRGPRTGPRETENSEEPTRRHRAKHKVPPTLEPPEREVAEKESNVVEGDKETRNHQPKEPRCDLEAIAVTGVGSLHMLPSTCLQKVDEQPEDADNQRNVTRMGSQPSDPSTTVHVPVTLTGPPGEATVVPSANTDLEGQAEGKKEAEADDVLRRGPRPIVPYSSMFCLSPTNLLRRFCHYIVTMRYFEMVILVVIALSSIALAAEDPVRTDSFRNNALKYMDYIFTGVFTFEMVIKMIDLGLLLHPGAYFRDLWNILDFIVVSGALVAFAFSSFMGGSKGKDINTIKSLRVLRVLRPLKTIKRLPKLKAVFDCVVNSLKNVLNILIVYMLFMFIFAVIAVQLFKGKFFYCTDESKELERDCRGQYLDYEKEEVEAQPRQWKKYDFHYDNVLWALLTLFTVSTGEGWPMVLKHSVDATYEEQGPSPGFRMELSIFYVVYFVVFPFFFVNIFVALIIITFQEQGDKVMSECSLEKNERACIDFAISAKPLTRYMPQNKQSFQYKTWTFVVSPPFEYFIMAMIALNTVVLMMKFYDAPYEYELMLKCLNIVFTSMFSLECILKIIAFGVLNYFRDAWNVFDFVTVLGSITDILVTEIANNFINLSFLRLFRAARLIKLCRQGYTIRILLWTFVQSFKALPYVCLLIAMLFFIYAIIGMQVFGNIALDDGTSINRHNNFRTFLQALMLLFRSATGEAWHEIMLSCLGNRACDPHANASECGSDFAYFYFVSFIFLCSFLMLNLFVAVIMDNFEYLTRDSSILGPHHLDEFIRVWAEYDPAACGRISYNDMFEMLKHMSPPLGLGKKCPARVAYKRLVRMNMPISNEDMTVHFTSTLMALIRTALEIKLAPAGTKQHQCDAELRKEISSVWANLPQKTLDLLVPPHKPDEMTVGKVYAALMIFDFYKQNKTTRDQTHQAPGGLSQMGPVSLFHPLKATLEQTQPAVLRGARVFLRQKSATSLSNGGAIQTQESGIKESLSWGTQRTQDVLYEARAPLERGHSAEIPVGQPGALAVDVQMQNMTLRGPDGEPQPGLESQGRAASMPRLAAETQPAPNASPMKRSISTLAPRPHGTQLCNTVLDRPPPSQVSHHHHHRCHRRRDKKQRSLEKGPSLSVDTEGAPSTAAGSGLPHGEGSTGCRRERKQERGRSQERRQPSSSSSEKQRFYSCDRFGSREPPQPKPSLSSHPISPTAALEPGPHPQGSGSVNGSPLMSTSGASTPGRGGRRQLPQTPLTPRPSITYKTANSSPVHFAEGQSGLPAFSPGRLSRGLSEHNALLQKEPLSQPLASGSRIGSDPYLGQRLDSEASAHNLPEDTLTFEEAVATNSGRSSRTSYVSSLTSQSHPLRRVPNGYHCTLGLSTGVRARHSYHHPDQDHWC
Chain of N-type calcium channel (P54290 25-944, further chain): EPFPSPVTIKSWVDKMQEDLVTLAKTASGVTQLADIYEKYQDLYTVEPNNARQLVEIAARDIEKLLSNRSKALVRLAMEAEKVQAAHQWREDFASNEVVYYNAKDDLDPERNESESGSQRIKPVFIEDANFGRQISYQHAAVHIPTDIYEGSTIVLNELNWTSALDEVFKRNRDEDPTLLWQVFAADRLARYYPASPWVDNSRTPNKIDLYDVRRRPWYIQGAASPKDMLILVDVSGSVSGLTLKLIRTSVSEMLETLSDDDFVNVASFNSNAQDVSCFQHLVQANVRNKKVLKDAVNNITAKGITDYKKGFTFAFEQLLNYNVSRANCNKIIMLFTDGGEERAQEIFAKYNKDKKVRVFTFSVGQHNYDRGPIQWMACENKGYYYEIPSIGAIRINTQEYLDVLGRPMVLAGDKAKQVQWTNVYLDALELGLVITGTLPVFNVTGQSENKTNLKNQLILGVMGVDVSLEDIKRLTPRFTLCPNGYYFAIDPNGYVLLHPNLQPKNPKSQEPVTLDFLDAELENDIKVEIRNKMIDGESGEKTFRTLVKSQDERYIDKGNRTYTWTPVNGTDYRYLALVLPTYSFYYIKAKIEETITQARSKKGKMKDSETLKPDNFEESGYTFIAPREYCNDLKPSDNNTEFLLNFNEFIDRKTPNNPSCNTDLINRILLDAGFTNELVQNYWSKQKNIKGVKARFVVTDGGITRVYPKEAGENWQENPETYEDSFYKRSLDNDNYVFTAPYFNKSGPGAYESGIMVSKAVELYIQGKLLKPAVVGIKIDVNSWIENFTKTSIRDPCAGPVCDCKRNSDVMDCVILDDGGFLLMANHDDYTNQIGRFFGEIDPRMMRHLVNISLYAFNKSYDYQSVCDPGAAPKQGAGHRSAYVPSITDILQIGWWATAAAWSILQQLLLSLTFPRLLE
Excerpt: (§4) Pharmacol. 58:254-264; and Spedding. (1984) M. Eur J Pharmacol. 83:211. […] 11(4):433-436. […] 75(6):2590-2601. […] 329:161-184.

Serotonin receptor = conditions: data not shown
Description: as §1
Orexin receptor 1 or 2 binding affinity was examined using the methods disclosed by Kukkonen et al., (2002) Am J Physiol Cell Physiol. 283:C1567-C1591; and Langmead et al., (2004) Br J Pharmacol. 141(2):340-346. […] Pharmacol. 58:254-264; and Spedding. (1984) M. Eur J Pharmacol. 83:211. Somaostatin receptor 2 binding activity was estimated by the method described by Feniuk et al., (1993) Br J Pharmacol. 110:1156-1164. Adenosine receptor binding activity was examined using the method described by Varani et al., (1996) Br J Pharmacol. 117:1693-1701. Bradykinin receptor binding activity was examined using the methods described by Horlick et al., (1999) Immunopharmacology 43(2-3):169-177; and Phagoo et al., (2001) J Pharmacol Exp Ther 298(1):77-85. […]

Melatonin receptor = Melatonin receptor binding activity; conditions: data not shown
Excerpt: as §4

SMILES: COc1ccc(CCN(C)CCC[C@](C#N)(c2ccc(OC)c(OC)c2)C(C)C)cc1OC [(R)-(+)-verapamil hydrochloride]
- inhibition at 300 µM (Orexin receptor 1): 57%
- nH (Hill coefficient) (Orexin receptor 1): 1.31
- inhibition at 100 µM (Orexin receptor 2): 56%
- nH (Hill coefficient) (Orexin receptor 2): 1.81
- % Inhibition (Sodium Channel, Site 2; rat sodium channel site 2, conc. 10 μM): 72%
- AG. (%) (agonist) (Somatostatin receptor 2; conc. 3 μM): 69%
- ANT. (%) (antagonist) (Dopamine D2L receptor; conc. 10 μM): 58%
- binding (in words) (N-type calcium channel): significant binding
- binding (in words) (Serotonin receptor): significant binding
- binding (in words) (Melatonin receptor): significant binding

SMILES: COc1ccc(CCN(C)CCC[C@@](C#N)(c2ccc(OC)c(OC)c2)C(C)C)cc1OC [(S)-(−)-verapamil hydrochloride]
- inhibition at 100 µM (Orexin receptor 1): 58%
- nH (Hill coefficient) (Orexin receptor 1): 1.27
- inhibition at 100 µM (Orexin receptor 2): 79%
- nH (Hill coefficient) (Orexin receptor 2): 1.33
- % Inhibition (Sodium Channel, Site 2; rat sodium channel site 2, conc. 3 μM): 75%
- AG. (%) (agonist) (Somatostatin receptor 2; conc. 0.3 μM): 61%
- ANT. (%) (antagonist) (Dopamine D2L receptor; conc. 3 μM): 66%
- binding (in words) (N-type calcium channel): significant binding
- binding (in words) (Serotonin receptor): significant binding
- binding (in words) (Melatonin receptor): significant binding
